# Data published in patent US11472808B2, “Substituted pyrrolo[1,2-c]pyrimidines as hepatitis B antiviral agents” (Enanta Pharmaceuticals, Inc., priority 2019, dated 2022).
# Tested on: HBV
# Assay: HepAD38 anti-HBV assay: reduction of viral product accumulation (virion DNA qPCR, HBsAg/HBeAg ELISA)
# Format: cell-based
# Conditions: Hepatitis B virus, 120 h; HepAD38 cells; concentration reducing viral product accumulation by 50% relative to no drug controls; harvest five days after compound addition; read-out: HepAD38 EC50
# Description: Methods: HepAD38 cells are maintained as previously reported (Ladner et al, Antimicrob. Agents Chemother. 1997, […], 1715). Briefly, cells are passaged upon attaining confluency in DMEM/F12 media in the presence of 10% FBS, Penn/Strep, 250 μg/mL G418, and 1 μg/ml tetracycline. Novel compounds are screened by first washing cells three times with PBS to remove tetracycline, and plating in 96 well plates at 35,000 cells/well. Compounds dissolved in DMSO are then diluted 1:200 into wells containing cells. Five days after compound addition, material is harvested for analysis. For an extended 8 day analysis, cells are plated and treated as described above, but media and compound are refreshed on d2 and d5 post initial treatment.
# On harvest day, virion DNA is obtained by lysing with Sidestep Lysis and Stabilization Buffer and then quantified via quantitative real time PCR. Commercially available ELISA kits are used to quantitate the viral proteins HBsAg (Alpco) or HbeAg (US Biological) by following the manufacturer's recommended protocol after diluting samples to match the linear range of their respective assays. Irrespective of readout, compound concentrations that reduce viral product accumulation in the cell lysates or supernatants by 50% relative to no drug controls (EC50) are reported; EC50 ranges are as follows: A<0.1 μM; B 0.1-0.4 μM; C>0.4 μM.
row,Structure (SMILES),EC50
1,COC(=O)C1CCCN(C(=O)C2CCCN(CCS(=O)(=O)N[C@H]3CC4=C(c5ccn(C(F)F)n5)[C@H](c5ccc(F)cc5Cl)N=C(c5nccs5)N4C3)C2)C1 (some centres unmarked) [Example 67],> 400 nM
2,O=C(O)C1CCCN(CCS(=O)(=O)N[C@H]2CC3=C(c4ccn(C(F)F)n4)[C@H](c4ccc(F)cc4Cl)N=C(c4nccs4)N3C2)C1 (some centres unmarked) [Example 68],> 400 nM
3,O=C(O)C1CCCN(C(=O)C2CCCN(CCS(=O)(=O)N[C@H]3CC4=C(c5ccn(C(F)F)n5)[C@H](c5ccc(F)cc5Cl)N=C(c5nccs5)N4C3)C2)C1 (some centres unmarked) [Example 69],> 400 nM
4,CC(C)CCS(=O)(=O)N[C@H]1CC2=C(c3ccn(C(F)F)n3)[C@H](c3ccc(F)cc3Cl)N=C(c3nccs3)N2C1 [Example 71],100 to 400 nM
5,CCNS(=O)(=O)N[C@H]1CC2=C(c3ccn(C(F)F)n3)[C@H](c3ccc(F)cc3Cl)N=C(c3nccs3)N2C1 [Example 76],< 100 nM
6,CCCNS(=O)(=O)N[C@H]1CC2=C(c3ccn(C(F)F)n3)[C@H](c3ccc(F)cc3Cl)N=C(c3nccs3)N2C1 [Example 77],< 100 nM
7,O=S(=O)(Nc1ccccc1)N[C@H]1CC2=C(c3ccn(C(F)F)n3)[C@H](c3ccc(F)cc3Cl)N=C(c3nccs3)N2C1 [Example 82],100 to 400 nM
8,O=S(=O)(Nc1ccncc1)N[C@H]1CC2=C(c3ccn(C(F)F)n3)[C@H](c3ccc(F)cc3Cl)N=C(c3nccs3)N2C1 [Example 83],100 to 400 nM
9,CCOC(=O)C1CCN(S(=O)(=O)N[C@H]2CC3=C(c4ccn(C(F)F)n4)[C@H](c4ccc(F)cc4Cl)N=C(c4nccs4)N3C2)CC1 [Example 87],< 100 nM
10,O=C(O)C1CCN(S(=O)(=O)N[C@H]2CC3=C(c4ccn(C(F)F)n4)[C@H](c4ccc(F)cc4Cl)N=C(c4nccs4)N3C2)CC1 [Example 90],< 100 nM
11,O=S(=O)(N[C@H]1CC2=C(c3ccn(C(F)F)n3)[C@H](c3ccc(F)cc3Cl)N=C(c3nccs3)N2C1)N1C[C@H](O)[C@@H](O)C1 [Example 101],< 100 nM
12,O=S(=O)(N[C@H]1CC2=C(c3ccn(C(F)F)n3)[C@H](c3ccc(F)cc3Cl)N=C(c3nccs3)N2C1)N1C[C@@H](O)[C@H](O)C1 [Example 102],< 100 nM
13,O=S(=O)(N[C@H]1CC2=C(c3ccn(C(F)F)n3)[C@H](c3ccc(F)cc3Cl)N=C(c3nccs3)N2C1)N1C[C@@H](O)[C@@H](O)C1 [Example 103],< 100 nM
14,O=S(=O)(N[C@H]1CC2=C(c3ccn(C(F)F)n3)[C@H](c3ccc(F)cc3Cl)N=C(c3nccs3)N2C1)[C@H]1CC[C@](O)(c2ccccn2)CC1 [Example 104],< 100 nM
15,O=S(=O)(N[C@H]1CC2=C(c3ccn(C(F)F)n3)[C@H](c3ccc(F)cc3Cl)N=C(c3nccs3)N2C1)[C@H]1CC[C@](O)(c2cccnc2)CC1 [Example 105],< 100 nM
16,COC[C@@]1(O)CC2=C(c3ccn(C(F)F)n3)[C@H](c3ccc(F)cc3Cl)N=C(c3nccs3)N2C1 [Example 106],> 400 nM
17,COC[C@]1(O)CC2=C(c3ccn(C(F)F)n3)[C@H](c3ccc(F)cc3Cl)N=C(c3nccs3)N2C1 [Example 107],> 400 nM
18,C=CCOC[C@]1(O)CC2=C(c3ccn(C(F)F)n3)[C@H](c3ccc(F)cc3Cl)N=C(c3nccs3)N2C1 [Example 108],100 to 400 nM
19,OCCOC[C@]1(O)CC2=C(c3ccn(C(F)F)n3)[C@H](c3ccc(F)cc3Cl)N=C(c3nccs3)N2C1 [Example 110],100 to 400 nM
20,OCCOC[C@@]1(O)CC2=C(c3ccn(C(F)F)n3)[C@H](c3ccc(F)cc3Cl)N=C(c3nccs3)N2C1 [Example 111],> 400 nM
21,COCCOC[C@@]1(O)CC2=C(c3ccn(C(F)F)n3)[C@H](c3ccc(F)cc3Cl)N=C(c3nccs3)N2C1 [Example 112],> 400 nM
22,COCCOC[C@]1(O)CC2=C(c3ccn(C(F)F)n3)[C@H](c3ccc(F)cc3Cl)N=C(c3nccs3)N2C1 [Example 113],> 400 nM

row,Structure (SMILES),EC50
1,C#CCNC[C@@]1(O)CC2=C(c3ccn(C(F)F)n3)[C@H](c3ccc(F)cc3Cl)N=C(c3nccs3)N2C1 [Example 114],> 400 nM
2,C#CCNC[C@]1(O)CC2=C(c3ccn(C(F)F)n3)[C@H](c3ccc(F)cc3Cl)N=C(c3nccs3)N2C1 [Example 115],> 400 nM
3,C=CCNC[C@@]1(O)CC2=C(c3ccn(C(F)F)n3)[C@H](c3ccc(F)cc3Cl)N=C(c3nccs3)N2C1 [Example 116],> 400 nM
4,C=CCNC[C@]1(O)CC2=C(c3ccn(C(F)F)n3)[C@H](c3ccc(F)cc3Cl)N=C(c3nccs3)N2C1 [Example 117],> 400 nM
5,O[C@]1(CNCc2ccccc2)CC2=C(c3ccn(C(F)F)n3)[C@H](c3ccc(F)cc3Cl)N=C(c3nccs3)N2C1 [Example 118],> 400 nM
6,O[C@@]1(CNCc2ccccc2)CC2=C(c3ccn(C(F)F)n3)[C@H](c3ccc(F)cc3Cl)N=C(c3nccs3)N2C1 [Example 119],> 400 nM
7,O[C@]1(Cn2cccn2)CC2=C(c3ccn(C(F)F)n3)[C@H](c3ccc(F)cc3Cl)N=C(c3nccs3)N2C1 [Example 120],> 400 nM
8,O[C@@]1(Cn2cccn2)CC2=C(c3ccn(C(F)F)n3)[C@H](c3ccc(F)cc3Cl)N=C(c3nccs3)N2C1 [Example 121],> 400 nM
9,ONC[C@@]1(O)CC2=C(c3ccn(C(F)F)n3)[C@H](c3ccc(F)cc3Cl)N=C(c3nccs3)N2C1 [Example 122],> 400 nM
10,ONC[C@]1(O)CC2=C(c3ccn(C(F)F)n3)[C@H](c3ccc(F)cc3Cl)N=C(c3nccs3)N2C1 [Example 123],> 400 nM
11,O[C@@]1(CCl)CC2=C(c3ccn(C(F)F)n3)[C@H](c3ccc(F)cc3Cl)N=C(c3nccs3)N2C1 [Example 124],< 100 nM
12,O[C@]1(CCl)CC2=C(c3ccn(C(F)F)n3)[C@H](c3ccc(F)cc3Cl)N=C(c3nccs3)N2C1 [Example 125],< 100 nM
13,CONC[C@@]1(O)CC2=C(c3ccn(C(F)F)n3)[C@H](c3ccc(F)cc3Cl)N=C(c3nccs3)N2C1 [Example 126],> 400 nM
14,CONC[C@]1(O)CC2=C(c3ccn(C(F)F)n3)[C@H](c3ccc(F)cc3Cl)N=C(c3nccs3)N2C1 [Example 127],> 400 nM
15,C=CCN(C[C@@]1(O)CC2=C(c3ccn(C(F)F)n3)[C@H](c3ccc(F)cc3Cl)N=C(c3nccs3)N2C1)S(C)(=O)=O [Example 128],> 400 nM
16,C=CCN(C[C@]1(O)CC2=C(c3ccn(C(F)F)n3)[C@H](c3ccc(F)cc3Cl)N=C(c3nccs3)N2C1)S(C)(=O)=O [Example 129],> 400 nM
17,COC(=O)c1cccc(S(=O)(=O)NC[C@]2(O)CC3=C(c4ccn(C(F)F)n4)[C@H](c4ccc(F)cc4Cl)N=C(c4nccs4)N3C2)c1 [Example 130],100 to 400 nM
18,COC(=O)c1cccc(S(=O)(=O)NC[C@@]2(O)CC3=C(c4ccn(C(F)F)n4)[C@H](c4ccc(F)cc4Cl)N=C(c4nccs4)N3C2)c1 [Example 131],100 to 400 nM
19,O=C(O)c1cccc(S(=O)(=O)NC[C@]2(O)CC3=C(c4ccn(C(F)F)n4)[C@H](c4ccc(F)cc4Cl)N=C(c4nccs4)N3C2)c1 [Example 132],> 400 nM
20,O=C(O)c1cccc(S(=O)(=O)NC[C@@]2(O)CC3=C(c4ccn(C(F)F)n4)[C@H](c4ccc(F)cc4Cl)N=C(c4nccs4)N3C2)c1 [Example 133],> 400 nM
21,CS(=O)(=O)[C@H]1CC2=C(c3ccn(C(F)F)n3)[C@H](c3ccc(F)cc3Cl)N=C(c3nccs3)N2C1 [Example 134],100 to 400 nM
22,N#CCCCS(=O)(=O)N([C@H]1CC2=C(c3ccn(C(F)F)n3)[C@H](c3ccc(F)cc3Cl)N=C(c3nccs3)N2C1)S(=O)(=O)CCCC#N [Example 136],100 to 400 nM
